Test results from patent publication US8628771B2, “CA IX-specific inhibitors” (Institute of Virology Slovak Academy of Sciences, priority 2002, dated 2014).
Values joined by “and” are separate entries in the source; they are usually repeats but may differ in a detail not shown here. Identical values can stand only once. Like-named read-outs stand apart in the source and are kept apart here.

Legend:
hCA I = biological target: T1, hCA I (Homo sapiens, UniProt P00915); experiment: CA esterase activity assay, isozyme hCA I; type: biochemical
T1 construct: made in house; host or cells: Escherichia coli BL21 (DE3)
T1 sequence (P00915 whole entry): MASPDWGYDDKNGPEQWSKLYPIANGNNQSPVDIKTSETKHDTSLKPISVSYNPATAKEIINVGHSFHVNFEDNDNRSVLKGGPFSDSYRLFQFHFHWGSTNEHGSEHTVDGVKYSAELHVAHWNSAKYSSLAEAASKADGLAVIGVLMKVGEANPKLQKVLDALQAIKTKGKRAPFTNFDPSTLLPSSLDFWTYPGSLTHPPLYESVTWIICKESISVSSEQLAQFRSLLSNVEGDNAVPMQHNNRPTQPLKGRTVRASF

hCA II = biological target: T2, hCA II (Homo sapiens, UniProt P00918); experiment: CA esterase activity assay, isozyme hCA II; type: biochemical
T2 construct: made in house; host or cells: Escherichia coli BL21 (DE3)

bCA IV = biological target: T3, bCA IV (Bos taurus, UniProt Q95323); experiment: CA esterase activity assay, isozyme bCA IV; type: biochemical, bovine
T3 construct: CA IV was isolated from bovine lung microsomes as described by Maren et al; from tissue; host or cells: bovine lung microsomes
T3 sequence (Q95323 19-284): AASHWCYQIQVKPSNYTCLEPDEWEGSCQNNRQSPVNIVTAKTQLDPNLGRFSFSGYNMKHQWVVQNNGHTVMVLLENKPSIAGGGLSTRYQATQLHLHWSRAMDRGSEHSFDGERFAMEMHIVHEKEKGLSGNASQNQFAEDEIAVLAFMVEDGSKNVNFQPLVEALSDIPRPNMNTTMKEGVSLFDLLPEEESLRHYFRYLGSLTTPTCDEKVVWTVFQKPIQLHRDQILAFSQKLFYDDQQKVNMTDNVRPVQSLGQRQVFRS

hCA IX = hCA IX (Homo sapiens, UniProt Q16790); experiment: CA CO2 hydrase activity assay, tumor-associated isozyme hCA IX
[1] = Table 2, human (cloned) isozymes, read-out: KI hCA I
[2] = Table 2, human (cloned) isozymes, read-out: KI hCA II
[3] = Table 2, from bovine lung microsomes, read-out: KI bCA IV
[4] = read-out: KI hCA IX, Table 2, catalytic domain of the human, cloned isozyme
[5] = KI against CA IX, text discussion of Tables 1-3
[6] = Table 3, human (cloned) isozymes, esterase assay method, read-out: KI hCA I
[7] = Table 3, human (cloned) isozymes, esterase assay method, read-out: KI hCA II
[8] = Tables 1 and 3, read-out: KI against CA II
[9] = Table 3, from bovine lung microsomes, esterase assay method, read-out: KI bCA IV
[10] = read-out: KI hCA IX, Table 3, catalytic domain of the human, cloned isozyme, CO2 hydrase assay method
[11] = Table 3, read-out: KI against CA I
[12] = Table 3, read-out: KI against CA IV

| SMILES | Ki (hCA I; [1]) | Ki (hCA II; [2]) | Ki (bCA IV; [3]) | Ki (hCA IX) | Ki (hCA IX; [4]) | Ki (hCA II; read-out: KI hCA II) | Ki (hCA IX; [5]) | Ki (bCA IV; read-out: KI bCA IV) | Ki (hCA I; [6]) | Ki (hCA II; [7]) | Ki (hCA II; [8]) | Ki (bCA IV; [9]) | Ki (hCA IX; [10]) | Ki (hCA I; [11]) | Ki (bCA IV; [12]) | Ki (hCA II; read-out: KI against CA II) |
| --- | --- | --- | --- | --- | --- | --- | --- | --- | --- | --- | --- | --- | --- | --- | --- | --- |
| NS(=O)(=O)c1ccc(C[n+]2c(-c3ccccc3)cc(-c3ccccc3)cc2-c2ccccc2)cc1 [Compound 52] | 280000 nM | 472 nM | 1960 nM | 64 to 135 nM | 120 nM |  |  |  |  |  |  |  |  |  |  |  |
| NS(=O)(=O)c1ccc(C[n+]2c(-c3ccccc3)cccc2-c2ccccc2)cc1 [Compound 53] | 280000 nM | 493 nM | 1950 nM | 64 to 135 nM | 106 nM |  |  |  |  |  |  |  |  |  |  |  |
| Cc1cc(C)[n+](Cc2ccc(S(N)(=O)=O)cc2)c(C)c1C [Compound 54] | 3000 nM |  | 51 nM |  | 35 nM | 30 nM | 6 to 54 nM |  |  |  |  |  |  |  |  |  |
| Cc1cc(C)[n+](CCc2ccc(S(N)(=O)=O)cc2)c(C(C)C)c1 [Compound 56] | 2000 nM | 15 nM | 32 nM |  | 31 nM |  |  |  |  |  |  |  |  |  |  |  |
| Cc1cc(C(C)C)[n+](CCc2ccc(S(N)(=O)=O)cc2)c(C(C)C)c1 [Compound 57] | 3000 nM | 20 nM | 70 nM |  | 49 nM |  |  |  |  |  |  |  |  |  |  |  |
| Cc1cc(-c2ccccc2)cc(C)[n+]1CCc1ccc(S(N)(=O)=O)cc1 [Compound 58] | 1000 nM | 8 nM | 20 nM |  | 6 nM |  | < 10 nM |  |  |  |  |  |  |  |  |  |
| CCc1cc(-c2ccccc2)cc(CC)[n+]1CCc1ccc(S(N)(=O)=O)cc1 [Compound 59] | 1000 nM | 9 nM | 21 nM | < 10 nM | 8 nM |  |  |  |  |  |  |  |  |  |  |  |
| CCCc1cc(-c2ccccc2)cc(CCC)[n+]1CCc1ccc(S(N)(=O)=O)cc1 [Compound 60] | 7000 nM | 42 nM | 82 nM | 160 to 450 nM | 205 nM |  |  |  |  |  |  |  |  |  |  |  |
| CCCc1cc(-c2ccccc2)cc(-c2ccccc2)[n+]1CCc1ccc(S(N)(=O)=O)cc1 [Compound 64] | 112000 nM | 270 nM |  |  | 84 nM |  |  | 1060 nM |  |  |  |  |  |  |  |  |
| CCCCc1cc(-c2ccccc2)cc(-c2ccccc2)[n+]1CCc1ccc(S(N)(=O)=O)cc1 [Compound 66] | 290000 nM | 544 nM | 2010 nM |  | 120 nM |  |  |  |  |  |  |  |  |  |  |  |
| NS(=O)(=O)c1ccc(CC[n+]2c(-c3ccccc3)cccc2-c2ccccc2)cc1 [Compound 69] | 265000 nM |  | 1900 nM | 64 to 135 nM | 81 nM | 420 nM |  |  |  |  |  |  |  |  |  |  |
| Cc1cc(C)[n+](CCc2ccc(S(N)(=O)=O)cc2)c(C)c1C [Compound 70] | 2000 nM | 10 nM | 21 nM |  | 8 nM |  | 6 to 54 nM and < 10 nM |  |  |  |  |  |  |  |  |  |

The next lines start with the values.

| Ki (hCA I; [1]) | Ki (hCA II; [2]) | Ki (bCA IV; [3]) | Ki (hCA IX) | Ki (hCA IX; [4]) | Ki (hCA II; read-out: KI hCA II) | Ki (hCA IX; [5]) | Ki (bCA IV; read-out: KI bCA IV) | Ki (hCA I; [6]) | Ki (hCA II; [7]) | Ki (hCA II; [8]) | Ki (bCA IV; [9]) | Ki (hCA IX; [10]) | Ki (hCA I; [11]) | Ki (bCA IV; [12]) | Ki (hCA II; read-out: KI against CA II) | SMILES |
| --- | --- | --- | --- | --- | --- | --- | --- | --- | --- | --- | --- | --- | --- | --- | --- | --- |
|  |  |  | 3 to 9 nM |  |  |  |  | 4 nM | 0.39 nM | 0.2 to 1.61 nM | 3 nM | 5 nM |  |  |  | Cc1cc(C)[n+](-c2ccc(S(=O)(=O)Nc3nnc(S(N)(=O)=O)s3)cc2)c(C(C)C)c1 [Compound 72, 1-N-[5-Sulfamoyl-1,3,4-thiadiazol-2-yl-(aminosulfonyl-4-phenyl)]-2-iso-propyl-4,6-dimethylpyridinium perchlorate] |
|  |  |  |  |  |  | 12 to 35 nM |  | 7 nM | 1.54 nM | 0.2 to 1.61 nM | 4.7 nM | 16 nM | 7 to 12 nM |  |  | Cc1cc(C(C)C)[n+](-c2ccc(S(=O)(=O)Nc3nnc(S(N)(=O)=O)s3)cc2)c(C(C)C)c1 [Compound 73, 1-N-[5-Sulfamoyl-1,3,4-thiadiazol-2-yl-(aminosulfonyl-4-phenyl)]-2,6-di-iso-propyl-4-methylpyridinium perchlorate] |
|  |  |  | 12 to 35 nM |  |  |  |  | 11 nM | 3.13 nM | 3.13 to 5.96 nM | 9.4 nM | 34 nM | 7 to 12 nM | 5.2 to 10.3 nM |  | Cc1cc(C(C)(C)C)[n+](-c2ccc(S(=O)(=O)Nc3nnc(S(N)(=O)=O)s3)cc2)c(C(C)(C)C)c1 [Compound 74] |
|  |  |  |  |  |  | 3 to 9 nM |  |  | 0.2 nM |  | 2 nM | 6 nM | 3 nM |  | 0.2 to 1.61 nM | Cc1cc(-c2ccccc2)cc(C)[n+]1-c1ccc(S(=O)(=O)Nc2nnc(S(N)(=O)=O)s2)cc1 [Compound 75, 1-N-[5-Sulfamoyl-1,3,4-thiadiazol-2-yl-(aminosulfonyl-4-phenyl)]-2,6-dimethyl-4-phenylpyridinium perchlorate] |
|  |  |  | 12 to 35 nM |  |  |  |  | 9 nM | 3.45 nM | 3.13 to 5.96 nM | 8.1 nM | 35 nM | 7 to 12 nM | 5.2 to 10.3 nM |  | CCCc1cc(-c2ccccc2)cc(CCC)[n+]1-c1ccc(S(=O)(=O)Nc2nnc(S(N)(=O)=O)s2)cc1 [Compound 77, 1-N-[5-Sulfamoyl-1,3,4-thiadiazol-2-yl-(aminosulfonyl-4-phenyl)]-2,6-di-n-propyl-4-phenylpyridinium perchlorate] |
|  |  |  |  |  |  | 40 to 43 nM |  | 10 nM | 4.62 nM | 3.13 to 5.96 nM | 10.3 nM | 40 nM | 7 to 12 nM | 5.2 to 10.3 nM |  | CCCCc1cc(-c2ccccc2)cc(CCCC)[n+]1-c1ccc(S(=O)(=O)Nc2nnc(S(N)(=O)=O)s2)cc1 [Compound 78] |
|  |  |  |  |  |  | 12 to 35 nM |  | 5 nM | 1.61 nM | 0.2 to 1.61 nM | 4.1 nM | 30 nM |  |  |  | CC(C)c1cc(-c2ccccc2)cc(C(C)C)[n+]1-c1ccc(S(=O)(=O)Nc2nnc(S(N)(=O)=O)s2)cc1 [Compound 79, 1-N-[5-Sulfamoyl-1,3,4-thiadiazol-2-yl-(aminosulfonyl-4-phenyl)]-2,6-di-isopropyl-4-phenylpyridinium perchlorate] |
|  |  |  | 12 to 35 nM |  |  |  |  | 4 nM | 1.21 nM | 0.2 to 1.61 nM | 3 nM | 24 nM |  |  |  | Cc1cc(-c2ccccc2)cc(-c2ccccc2)[n+]1-c1ccc(S(=O)(=O)Nc2nnc(S(N)(=O)=O)s2)cc1 [Compound 80, 1-N-[5-Sulfamoyl-1,3,4-thiadiazol-2-yl-(aminosulfonyl-4-phenyl)]-2-methyl-4,6-diphenylpyridinium perchlorate] |
|  |  |  |  |  |  | 12 to 35 nM |  | 5 nM | 1.14 nM |  | 3.8 nM | 29 nM |  |  | 0.2 to 1.61 nM | CCc1cc(-c2ccccc2)cc(-c2ccccc2)[n+]1-c1ccc(S(=O)(=O)Nc2nnc(S(N)(=O)=O)s2)cc1 [Compound 81, 1-N-[5-Sulfamoyl-1,3,4-thiadiazol-2-yl-(aminosulfonyl-4-phenyl)]-2-ethyl-4,6-diphenylpyridinium perchlorate] |
|  |  |  |  |  |  |  |  | 8 nM | 3.9 nM | 3.13 to 5.96 nM | 6 nM | 40 nM | 7 to 12 nM | 5.2 to 10.3 nM |  | CCCc1cc(-c2ccccc2)cc(-c2ccccc2)[n+]1-c1ccc(S(=O)(=O)Nc2nnc(S(N)(=O)=O)s2)cc1 [Compound 82, 1-N-[5-Sulfamoyl-1,3,4-thiadiazol-2-yl-(aminosulfonyl-4-phenyl)]-2-n-propyl-4,6-diphenylpyridinium perchlorate] |
|  |  |  | 12 to 35 nM |  |  |  |  | 6 nM | 3.74 nM | 3.13 to 5.96 nM | 4.5 nM | 32 nM |  |  |  | CC(C)c1cc(-c2ccccc2)cc(-c2ccccc2)[n+]1-c1ccc(S(=O)(=O)Nc2nnc(S(N)(=O)=O)s2)cc1 [Compound 83, 1-N-[5-Sulfamoyl-1,3,4-thiadiazol-2-yl-(aminosulfonyl-4-phenyl)]-2-iso-propyl-4,6-diphenylpyridinium perchlorate] |
|  |  |  |  |  |  |  |  | 8 nM | 4.95 nM | 3.13 to 5.96 nM | 8.4 nM | 45 nM | 7 to 12 nM | 5.2 to 10.3 nM |  | CCCCc1cc(-c2ccccc2)cc(-c2ccccc2)[n+]1-c1ccc(S(=O)(=O)Nc2nnc(S(N)(=O)=O)s2)cc1 [Compound 84, 1-N-[5-Sulfamoyl-1,3,4-thiadiazol-2-yl-(aminosulfonyl-4-phenyl)]-2-n-butyl-4,6-diphenylpyridinium perchlorate] |
|  |  |  | 40 to 43 nM |  |  |  |  | 12 nM | 4.11 nM | 3.13 to 5.96 nM | 7 nM | 43 nM | 7 to 12 nM | 5.2 to 10.3 nM |  | CC(C)(C)c1cc(-c2ccccc2)cc(-c2ccccc2)[n+]1-c1ccc(S(=O)(=O)Nc2nnc(S(N)(=O)=O)s2)cc1 [Compound 85, 1-N-[5-Sulfamoyl-1,3,4-thiadiazol-2-yl-(aminosulfonyl-4-phenyl)]-2-tert-butyl-4,6-diphenylpyridinium perchlorate] |
|  |  |  | 12 to 35 nM |  |  |  |  | 5 nM | 5.96 nM | 3.13 to 5.96 nM | 5.6 nM | 12 nM |  | 5.2 to 10.3 nM |  | NS(=O)(=O)c1nnc(NS(=O)(=O)c2ccc(-[n+]3c(-c4ccccc4)cc(-c4ccccc4)cc3-c3ccccc3)cc2)s1 [Compound 87, 1-N-[5-Sulfamoyl-1,3,4-thiadiazol-2-yl-(aminosulfonyl-4-phenyl)]-2,4,6-triphenyl-pyridinium perchlorate] |
